Data reported in ChEMBL document CHEMBL4411327, “Discovery of pyrimidine nucleoside dual prodrugs and pyrazine nucleosides as novel anti-HCV agents” (Bioorg Med Chem, 2019).

Assays:
[1] = Cytotoxicity against human HuH7 cells infected with HCV genotype 1b replicon after 72 hrs by CellTiter-Fluor reagent based fluorescence assay; format: cell-based, Huh-7
Hepatitis C virus [2] = test: Antiviral activity against HCV genotype 1b replicon infected in human HuH7 cells after 72 hrs by bright-glo luciferase reporter gene assay; format: functional, organism-based, Hepacivirus hominis; conditions: subtype 1b, Huh-7, 72 h
Hepatitis C virus [3] = test: Antiviral activity against HCV genotype 1b replicon infected in human HuH7 cells at 100 uM after 72 hrs by bright-glo luciferase reporter gene assay relative to control; format: functional, Hepacivirus hominis; conditions: subtype 1b, Huh-7, 72 h
Hepatitis C virus [4] = test: Antiviral activity against HCV genotype 1b replicon infected in human HuH7 cells at 10 uM after 72 hrs by bright-glo luciferase reporter gene assay relative to control; format: functional, Hepacivirus hominis; conditions: subtype 1b, Huh-7, 72 h
Hepatitis C virus [5] = test: Antiviral activity against HCV genotype 1b replicon infected in human HuH7 cells at 20 uM after 72 hrs by bright-glo luciferase reporter gene assay relative to control; format: functional, Hepacivirus hominis; conditions: subtype 1b, Huh-7, 72 h
[6] = Stability in human plasma assessed as parent compound remaining at 40 uM measured after 0.5 hrs by LC-MS/MS analysis; format: ADME, cell-free; conditions: read-out: Stability
[7] = Metabolic bioavailability in human liver microsomes at 0.1 uM preincubated with MgCl2 for 10 mins followed by NADPH addition measured within 60 mins by LC-MS/MS analysis; format: ADME, Microsome
[8] = Stability in human liver microsomes assessed as parent compound remaining at 0.1 uM preincubated with MgCl2 for 10 mins followed by NADPH addition measured immediately by LC-MS/MS analysis; format: ADME, Microsome; conditions: read-out: Stability
[9] = Stability in human liver microsomes assessed as parent compound remaining at 0.1 uM preincubated with MgCl2 for 10 mins followed by NADPH addition measured after 60 mins by LC-MS/MS analysis; format: ADME, Microsome; conditions: read-out: Stability
[10] = Stability in human liver microsomes assessed as parent compound remaining at 0.1 uM preincubated with MgCl2 for 10 mins followed by NADPH addition measured after 7 mins by LC-MS/MS analysis; format: ADME, Microsome; conditions: read-out: Stability
[11] = Stability in human plasma assessed as parent compound remaining at 40 uM measured immediately by LC-MS/MS analysis; format: ADME, cell-free; conditions: read-out: Stability
[12] = Stability in human plasma assessed as parent compound remaining at 40 uM measured after 5 hrs by LC-MS/MS analysis; format: ADME, cell-free; conditions: read-out: Stability
[13] = Stability in human liver microsomes assessed as parent compound remaining at 0.1 uM preincubated with MgCl2 for 10 mins followed by NADPH addition measured after 30 mins by LC-MS/MS analysis; format: ADME, Microsome; conditions: liver microsomes, read-out: Stability
[14] = Stability in human plasma assessed as parent compound remaining at 40 uM measured after 1 hr by LC-MS/MS analysis; format: ADME, cell-free; conditions: read-out: Stability
[15] = Half life in human plasma at 40 uM by LC-MS/MS analysis; format: ADME, cell-free
[16] = Half life in human liver microsomes at 0.1 uM preincubated with MgCl2 for 10 mins followed by NADPH addition by LC-MS/MS analysis; format: ADME, Microsome; conditions: liver microsomes
[17] = Stability in human liver microsomes assessed as parent compound remaining at 0.1 uM preincubated with MgCl2 for 10 mins followed by NADPH addition measured after 17 mins by LC-MS/MS analysis; format: ADME, Microsome; conditions: liver microsomes, read-out: Stability
[18] = Stability in human plasma assessed as parent compound remaining at 40 uM measured after 2 hrs by LC-MS/MS analysis; format: ADME, cell-free; conditions: read-out: Stability

SMILES: CC(C)OC(=O)[C@H](C)N[P@](=O)(OC[C@H]1O[C@@H](n2ccnc(N)c2=O)[C@](C)(O)[C@@H]1O)Oc1ccccc1
- CC50 at 72 h [1]: 59.6 µM
- EC50 (Hepatitis C virus [2]): 24.4 µM
- inhibition at 100 µM (Hepatitis C virus [3]): 99.8%

SMILES: CC(C)OC(=O)[C@H](C)N[P@](=O)(OC[C@H]1O[C@@H](n2ccc(=O)n(C(C)OC(=O)OC3CCCCC3)c2=O)[C@](C)(F)[C@@H]1O)Oc1ccccc1 (stereo partly specified)
- CC50 at 72 h [1]: > 10 µM
- EC50 (Hepatitis C virus [2]): 0.5 µM
- inhibition at 10 µM (Hepatitis C virus [4]): 99.9%

SMILES: C=CCNc1ccn([C@@H]2O[C@H](CO[P@@](=O)(N[C@@H](C)C(=O)OC(C)C)Oc3ccccc3)[C@@H](O)[C@@]2(C)F)c(=O)n1
- CC50 at 72 h [1]: > 20 µM
- EC50 (Hepatitis C virus [2]): > 20 µM
- inhibition at 20 µM (Hepatitis C virus [5]): 0%

SMILES: CCOC(=O)OC(C)n1c(=O)ccn([C@@H]2O[C@H](CO[P@@](=O)(N[C@@H](C)C(=O)OC(C)C)Oc3ccccc3)[C@@H](O)[C@@]2(C)F)c1=O (stereo partly specified)
- CC50 at 72 h [1]: > 10 µM
- EC50 (Hepatitis C virus [2]): 0.22 µM
- inhibition at 10 µM (Hepatitis C virus [4]): 99.6%

SMILES: CC(C)COC(=O)n1c(=O)ccn([C@@H]2O[C@H](CO[P@@](=O)(N[C@@H](C)C(=O)OC(C)C)Oc3ccccc3)[C@@H](O)[C@@]2(C)F)c1=O
- remaining at 0.5 h, 40 µM [6]: 87.3%
- Fh at 1 h, 0.1 µM [7]: 1.33%
- remaining at 0 min, 0.1 µM [8]: 100%
- remaining at 1 h, 0.1 µM [9]: 0%
- CC50 at 72 h [1]: > 10 µM
- remaining at 7 min, 0.1 µM [10]: 3.5%
- remaining at 0 h, 40 µM [11]: 100%
- remaining at 5 h, 40 µM [12]: 0%
- remaining at 0.5 h, 0.1 µM [13]: 0%
- remaining at 1 h, 40 µM [14]: 61%
- EC50 (Hepatitis C virus [2]): 0.4 µM
- half-life at 40 µM [15]: 18 min
- half-life at 0.1 µM [16]: 1.44 min
- remaining at 17 min, 0.1 µM [17]: 0%
- inhibition at 10 µM (Hepatitis C virus [4]): 99.9%
- remaining at 2 h, 40 µM [18]: 17.2%

SMILES: C[C@@]1(O)[C@H](O)[C@@H](CO)O[C@H]1n1cc(Cl)nc(C(N)=O)c1=O
- CC50 at 72 h [1]: > 100 µM
- EC50 (Hepatitis C virus [2]): 7.3 µM

SMILES: CCNc1nccn([C@@H]2O[C@](C)(CO[P@@](=O)(N[C@@H](C)C(=O)OC(C)C)Oc3ccccc3)[C@@H](O)[C@H]2O)c1=O
- CC50 at 72 h [1]: > 100 µM
- EC50 (Hepatitis C virus [2]): > 100 µM

SMILES: COc1ccn([C@@H]2O[C@H](CO[P@@](=O)(N[C@@H](C)C(=O)OC(C)C)Oc3ccccc3)[C@@H](O)[C@@]2(C)F)c(=O)n1
- CC50 at 72 h [1]: > 20 µM
- EC50 (Hepatitis C virus [2]): > 20 µM
- inhibition at 20 µM (Hepatitis C virus [5]): 0%

SMILES: CC(C)OC(=O)[C@H](C)N[P@](=O)(OC[C@H]1O[C@@H](n2ccc(OC3CC3)nc2=O)[C@](C)(F)[C@@H]1O)Oc1ccccc1
- CC50 at 72 h [1]: > 20 µM
- EC50 (Hepatitis C virus [2]): > 20 µM
- inhibition at 20 µM (Hepatitis C virus [5]): 0%

SMILES: CCOC(=O)OCn1c(=O)ccn([C@@H]2O[C@H](CO[P@@](=O)(N[C@@H](C)C(=O)OC(C)C)Oc3ccccc3)[C@@H](O)[C@@]2(C)F)c1=O
- CC50 at 72 h [1]: > 10 µM
- EC50 (Hepatitis C virus [2]): 0.21 µM
- inhibition at 10 µM (Hepatitis C virus [4]): 99.3%

SMILES: C#CCOc1ccn([C@@H]2O[C@H](CO[P@@](=O)(N[C@@H](C)C(=O)OC(C)C)Oc3ccccc3)[C@@H](O)[C@@]2(C)F)c(=O)n1
- CC50 at 72 h [1]: > 20 µM
- EC50 (Hepatitis C virus [2]): 12.2 µM
- inhibition at 20 µM (Hepatitis C virus [5]): 46.9%

SMILES: C[C@]1(CO)O[C@@H](n2ccnc(C(N)=O)c2=O)[C@H](O)[C@@H]1O
- CC50 at 72 h [1]: > 100 µM
- EC50 (Hepatitis C virus [2]): > 100 µM

SMILES: CC=CCOc1ccn([C@@H]2O[C@H](CO[P@@](=O)(N[C@@H](C)C(=O)OC(C)C)Oc3ccccc3)[C@@H](O)[C@@]2(C)F)c(=O)n1 (mixture of isomers)
- CC50 at 72 h [1]: > 100 µM
- EC50 (Hepatitis C virus [2]): 30.3 µM
- inhibition at 100 µM (Hepatitis C virus [3]): 66.3%

SMILES: CCCCCOC(=O)n1c(=O)ccn([C@@H]2O[C@H](CO[P@@](=O)(N[C@@H](C)C(=O)OC(C)C)Oc3ccccc3)[C@@H](O)[C@@]2(C)F)c1=O
- CC50 at 72 h [1]: > 10 µM
- EC50 (Hepatitis C virus [2]): 0.7 µM
- inhibition at 10 µM (Hepatitis C virus [4]): 99.9%

SMILES: C[C@@]1(O)[C@H](O)[C@@H](CO)O[C@H]1n1cc(C(N)=O)ncc1=O
- CC50 at 72 h [1]: > 100 µM
- EC50 (Hepatitis C virus [2]): > 100 µM

SMILES: C[C@@]1(O)[C@H](O)[C@@H](CO)O[C@H]1n1ccnc(N)c1=O
- CC50 at 72 h [1]: > 100 µM
- inhibition at 100 µM (Hepatitis C virus [3]): 22.3%
